Results reported in patent US20230115945A1, “AMINOPYRIMIDINE COMPOUNDS” (TYRA BIOSCIENCES, INC., priority 2019, published 2023).

What was measured:
FGFR1-BCR Ba/F3 cells = target: T1, FGFR1-BCR Ba/F3 cells (Homo sapiens, UniProt P11362); assay: Ba/F3 cell viability assay, FGFR1; format: cell-based; conditions: FGFR1-BCR Ba/F3, 48 hours, Cell Titer-Glo 2.0; read-out: Ba/F3 Cells FGFR1 (IC50 nM)
T1 construct: Ba/F3 FGFR1; FGFR1-BCR; Advanced Cellular Dynamics, (Seattle, WA); fused on or other part: P11274 (Breakpoint cluster region protein)
Excerpt: (§1) Experimental Purpose: Recombinant kinase fusions are transduced into parental Ba/F3, which becomes dependent upon this constitutive kinase activity for IL3-independent survival. Inhibition of kinase activity leads to cell death, which is monitored using CellTiter-Glo® 2.0 (Promega) which measures intracellular ATP concentration that in turn serves as a marker for viability. FGFR1-BCR Ba/F3 and FGFR3-BAIAP2L1 Ba/F3 were obtained from Advanced Cellular Dynamics (Seattle, Wash.)
(§2) Cell Viability Assay Procedure: Cell Titer-Glo® 2.0 Luminescent cell viability assay reagent was purchased from Promega (Madison, Wis.). FGFR1-BCR Ba/F3 and FGFR3-BAIAP2L1 Ba/F3 cells were cultured in RPMI1640 media supplemented with 10% fetal bovine serum. Cultures were maintained at 37° C. in a humidified atmosphere of 5% CO2 and 95% air.
(§3) Cells were plated in 96-well clear bottom/white plates (Corning #3903) at 10,000 cells/well in 100 μl of media, incubated overnight. The next day, test compound DMSO stock solutions were made at 10 mM and 2 μM final concentration. Compounds were then added to cells in a 9-dose, 10-fold dilution series starting at 30 μM with an HP 300e Digital Dispenser (each dose was applied in triplicate). DMSO was backfilled to each well up to 301 nL total volume of test compound+DMSO, and a total of 301 nL DMSO was added to a control/no test compound well in triplicate. The cells in cell culture plates were incubated with the compounds at 37° C. and 5% CO2 for 48 hours. Then 50 μl of Cell Titer Glo 2.0 reagent was added to each well of the cell culture plates. The contents were covered from light and mixed on an orbital shaker at room temperature for 10 min. Luminescence was recorded by a Synergy H1 Microplate Reader (Biotek, Winooski, Vt.). Cells were assessed as a percentage of DMSO only treated control cells. Curves were plotted and IC50 values were calculated using the GraphPad Prism 8 program based on a sigmoidal dose-response equation (4 parameter).

[1] = test system: RT112/84 cells (Bladder Cancer, FGFR3-TACC3 fusion); assay: Cancer cell line cell viability assay, RT112/84; format: cell-based; conditions: Homo sapiens, 72 hours, Cell Titer-Glo 2.0, read-out: Cancer Cell Viability Assays RT112/84 (IC50 nM)
Excerpt: (§4) [table] To detect the change of intracellular ATP by Cell Titer-Glo® and to evaluate the inhibitory effect of the compounds on cancer cell lines by determining the in vitro IC50 value of the compounds. Cell Titer-Glo® 2.0 Luminescent cell viability assay reagent was purchased from Promega (Madison, Wis.). RT112/84, SNU-16, and KG-1 cell lines were purchased from American Type Culture Collection (Manassas, Va.). UM-UC-14 cell line was purchased from Sigma (St. Louis, Mo.). RT112/84, UM-UC-14, SNU-16, and KG-1 cells were cultured in RPMI1640 media supplemented with 10% fetal bovine serum. Cultures were maintained at 37° C. in a humidified atmosphere of 5% CO2 and 95% air. Cell Viability Assay Procedure: Cells were plated in 96-well clear bottom/white plates (Corning #3903) at 10,000 cells/well in 100 μl of media, incubated overnight. The next day, test compound DMSO stock solutions were made at 10 mM and 2 μM final concentration. Compounds were then added to cells in a 9-dose, […] dilution series starting at 30 μM with an HP 300e Digital Dispenser (each dose was applied in triplicate). DMSO was backfilled to each well up to 301 nL total volume of test compound+DMSO, and a total of 301 nL DMSO was added to a control/no test compound well in triplicate. The cells in cell culture plates were incubated with the compounds at 37° C. and 5% CO2 for 72 hours. Then 50 μl of Cell Titer Glo 2.0 reagent was added to each well of the cell culture plates. The contents were covered from light and mixed on an orbital shaker at room temperature for 10 min. Luminescence was recorded by a Synergy H1 Microplate Reader (Biotek, Winooski, Vt.). Cells were assessed as a percentage of DMSO only treated control cells. Curves were plotted and IC50 values were calculated using the GraphPad Prism 8 program based on a sigmoidal dose-response equation (4 parameter).

FGFR3 (V555M) = target: T2, FGFR3 (V555M) (Homo sapiens, UniProt P22607, V555M); assay: Kinase binding assay (Kd), FGFR3 (V555M); conditions: 11-point 3-fold dilution, qPCR readout
T2 construct: made in house; host or cells: E. coli host derived from BL21, infected with T7 phage
Summary of the method: (§5)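 Competition binding: kinase-tagged T7 phage, ligand-coated streptavidin beads and an 11-point 3-fold compound series (0.9% DMSO final) were incubated 1 h at room temperature. Bead-bound kinase was eluted and quantified by qPCR. Kd was fitted to the Hill equation with slope fixed at −1.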

FGFR2 = target: T3, FGFR2 (Homo sapiens, UniProt P21802); assay: Kinase binding assay (Kd), FGFR2; conditions: 11-point 3-fold dilution, qPCR readout
T3 construct: made in house; host or cells: E. coli host derived from BL21, infected with T7 phage
Summary of the method: as §5

FGFR4 = target: T4, FGFR4 (Homo sapiens, UniProt P22455); assay: Kinase binding assay (Kd), FGFR4; conditions: 11-point 3-fold dilution, qPCR readout
T4 construct: made in house; host or cells: E. coli host derived from BL21, infected with T7 phage
Summary of the method: as §5

[2] = target: T5, FGFR3-BAIAP2L1 Ba/F3 cells (Homo sapiens, UniProt P22607); assay: Ba/F3 cell viability assay, FGFR3; format: cell-based; conditions: FGFR3-BAIAP2L1 fusion Ba/F3, 48 hours, Cell Titer-Glo 2.0; read-out: Ba/F3 Cells FGFR3 (IC50 nM)
T5 construct: Ba/F3 FGFR3; FGFR3--BAIAP2L1 fusion; Advanced Cellular Dynamics, (Seattle, WA); fused on or other part: Q9UHR4 (BAR/IMD domain-containing adapter protein 2-like 1)
Excerpt: as §1, §2, §3

FGFR1 = target: T6, FGFR1 (Homo sapiens, UniProt P11362); assay: Kinase binding assay (Kd), FGFR1; conditions: 11-point 3-fold dilution, qPCR readout
T6 construct: made in house; host or cells: E. coli host derived from BL21, infected with T7 phage
Summary of the method: as §5

FGFR3 = target: T7, FGFR3 (Homo sapiens, UniProt P22607); assay: Kinase binding assay (Kd), FGFR3; conditions: 11-point 3-fold dilution, qPCR readout
T7 construct: made in house; host or cells: E. coli host derived from BL21, infected with T7 phage
Summary of the method: as §5

[3] = test system: SNU-16 cells (Gastric Carcinoma, FGFR2 amplification); assay: Cancer cell line cell viability assay, SNU-16; format: cell-based; conditions: Homo sapiens, 72 hours, Cell Titer-Glo 2.0, read-out: Cancer Cell Viability Assays SNU-16 (IC50 nM)
Excerpt: as §4

T5 sequence (P22607 whole entry, change not shown, the tested form may be a part): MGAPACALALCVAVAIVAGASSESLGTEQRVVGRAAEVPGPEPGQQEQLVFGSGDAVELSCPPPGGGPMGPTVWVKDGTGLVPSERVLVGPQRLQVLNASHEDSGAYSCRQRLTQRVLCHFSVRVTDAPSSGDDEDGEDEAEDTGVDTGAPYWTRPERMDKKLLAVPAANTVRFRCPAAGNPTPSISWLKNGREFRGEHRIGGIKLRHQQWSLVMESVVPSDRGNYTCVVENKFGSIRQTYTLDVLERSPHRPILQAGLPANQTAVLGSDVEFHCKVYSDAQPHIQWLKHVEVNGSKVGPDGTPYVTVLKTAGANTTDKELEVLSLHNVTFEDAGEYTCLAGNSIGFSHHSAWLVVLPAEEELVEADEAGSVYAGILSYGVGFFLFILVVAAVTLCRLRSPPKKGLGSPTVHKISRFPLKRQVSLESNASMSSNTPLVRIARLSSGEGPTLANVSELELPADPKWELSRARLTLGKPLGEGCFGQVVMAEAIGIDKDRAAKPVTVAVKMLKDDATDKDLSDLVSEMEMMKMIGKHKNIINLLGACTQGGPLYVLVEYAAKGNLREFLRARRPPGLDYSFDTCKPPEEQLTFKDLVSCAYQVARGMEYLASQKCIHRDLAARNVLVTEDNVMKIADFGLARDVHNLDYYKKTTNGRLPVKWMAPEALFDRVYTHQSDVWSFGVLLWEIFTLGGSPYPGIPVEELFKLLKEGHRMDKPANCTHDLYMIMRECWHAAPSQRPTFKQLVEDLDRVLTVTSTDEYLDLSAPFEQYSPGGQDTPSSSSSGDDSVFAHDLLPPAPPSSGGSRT
T7 sequence (P22607 23-806): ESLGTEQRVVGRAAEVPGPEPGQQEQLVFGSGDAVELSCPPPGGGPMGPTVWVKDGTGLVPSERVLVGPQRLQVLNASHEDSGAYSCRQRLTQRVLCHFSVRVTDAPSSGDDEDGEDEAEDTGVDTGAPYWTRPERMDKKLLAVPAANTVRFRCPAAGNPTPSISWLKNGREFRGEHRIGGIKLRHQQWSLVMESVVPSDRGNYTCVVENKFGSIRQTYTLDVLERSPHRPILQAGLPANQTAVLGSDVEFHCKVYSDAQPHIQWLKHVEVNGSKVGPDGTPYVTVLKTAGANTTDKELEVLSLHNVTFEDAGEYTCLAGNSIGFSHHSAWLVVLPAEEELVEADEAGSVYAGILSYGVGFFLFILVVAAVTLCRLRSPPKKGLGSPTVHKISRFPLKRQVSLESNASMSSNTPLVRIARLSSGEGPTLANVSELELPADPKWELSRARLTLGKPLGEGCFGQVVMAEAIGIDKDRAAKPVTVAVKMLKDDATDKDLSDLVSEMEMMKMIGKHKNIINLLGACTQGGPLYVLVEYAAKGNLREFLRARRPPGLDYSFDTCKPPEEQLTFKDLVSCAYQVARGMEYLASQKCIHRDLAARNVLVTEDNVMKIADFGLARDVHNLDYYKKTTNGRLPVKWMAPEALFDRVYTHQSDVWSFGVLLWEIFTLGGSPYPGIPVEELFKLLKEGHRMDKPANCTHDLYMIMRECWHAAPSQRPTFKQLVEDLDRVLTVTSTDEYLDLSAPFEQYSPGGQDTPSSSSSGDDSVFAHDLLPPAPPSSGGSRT
T2 sequence (P22607 23-806 V555M): as the sequence (P22607 23-806) above, with V533M counted along it
T6 sequence (P11362 22-822): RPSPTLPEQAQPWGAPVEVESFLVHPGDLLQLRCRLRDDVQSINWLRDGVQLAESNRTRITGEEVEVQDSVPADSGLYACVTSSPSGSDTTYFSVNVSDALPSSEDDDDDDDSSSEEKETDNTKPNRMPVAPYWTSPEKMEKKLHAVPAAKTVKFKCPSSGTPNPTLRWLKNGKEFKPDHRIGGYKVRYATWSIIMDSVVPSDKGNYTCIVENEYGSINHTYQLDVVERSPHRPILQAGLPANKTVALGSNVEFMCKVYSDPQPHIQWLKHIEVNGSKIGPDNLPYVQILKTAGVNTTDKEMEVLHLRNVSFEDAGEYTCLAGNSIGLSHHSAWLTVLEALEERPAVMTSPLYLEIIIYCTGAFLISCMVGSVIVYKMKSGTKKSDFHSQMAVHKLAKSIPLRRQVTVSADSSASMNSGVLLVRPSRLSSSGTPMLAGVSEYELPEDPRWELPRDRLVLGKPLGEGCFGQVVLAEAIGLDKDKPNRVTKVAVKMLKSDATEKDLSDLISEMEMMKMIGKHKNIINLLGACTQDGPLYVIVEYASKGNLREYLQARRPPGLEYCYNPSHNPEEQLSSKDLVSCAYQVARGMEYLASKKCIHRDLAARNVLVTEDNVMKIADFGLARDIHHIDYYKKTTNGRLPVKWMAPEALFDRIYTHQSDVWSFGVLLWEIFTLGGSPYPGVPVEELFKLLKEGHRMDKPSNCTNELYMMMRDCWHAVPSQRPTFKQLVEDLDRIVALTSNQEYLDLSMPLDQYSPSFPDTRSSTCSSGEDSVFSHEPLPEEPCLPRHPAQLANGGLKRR
T1 sequence (P11362 whole entry, change not shown, the tested form may be a part): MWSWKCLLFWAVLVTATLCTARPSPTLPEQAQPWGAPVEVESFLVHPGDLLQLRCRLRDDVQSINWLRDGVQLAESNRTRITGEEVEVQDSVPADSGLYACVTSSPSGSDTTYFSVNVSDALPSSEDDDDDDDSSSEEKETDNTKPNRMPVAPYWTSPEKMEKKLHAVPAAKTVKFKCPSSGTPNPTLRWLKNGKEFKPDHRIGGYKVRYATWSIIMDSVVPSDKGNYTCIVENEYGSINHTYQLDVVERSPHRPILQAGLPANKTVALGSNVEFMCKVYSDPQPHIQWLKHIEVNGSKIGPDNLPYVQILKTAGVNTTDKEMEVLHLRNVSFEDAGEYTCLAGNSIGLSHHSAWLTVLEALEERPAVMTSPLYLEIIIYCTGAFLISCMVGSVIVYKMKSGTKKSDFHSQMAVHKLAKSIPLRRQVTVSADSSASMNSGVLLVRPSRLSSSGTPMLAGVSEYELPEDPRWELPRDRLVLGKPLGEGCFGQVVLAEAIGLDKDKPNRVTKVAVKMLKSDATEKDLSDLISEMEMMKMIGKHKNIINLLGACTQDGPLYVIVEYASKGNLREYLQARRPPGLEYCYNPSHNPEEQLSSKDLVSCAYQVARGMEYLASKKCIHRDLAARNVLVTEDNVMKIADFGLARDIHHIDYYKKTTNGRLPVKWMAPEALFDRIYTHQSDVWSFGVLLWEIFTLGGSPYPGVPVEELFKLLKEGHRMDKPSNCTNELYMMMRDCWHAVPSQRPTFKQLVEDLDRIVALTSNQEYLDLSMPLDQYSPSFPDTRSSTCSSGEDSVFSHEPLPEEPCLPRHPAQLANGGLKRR
T3 sequence (P21802 22-821): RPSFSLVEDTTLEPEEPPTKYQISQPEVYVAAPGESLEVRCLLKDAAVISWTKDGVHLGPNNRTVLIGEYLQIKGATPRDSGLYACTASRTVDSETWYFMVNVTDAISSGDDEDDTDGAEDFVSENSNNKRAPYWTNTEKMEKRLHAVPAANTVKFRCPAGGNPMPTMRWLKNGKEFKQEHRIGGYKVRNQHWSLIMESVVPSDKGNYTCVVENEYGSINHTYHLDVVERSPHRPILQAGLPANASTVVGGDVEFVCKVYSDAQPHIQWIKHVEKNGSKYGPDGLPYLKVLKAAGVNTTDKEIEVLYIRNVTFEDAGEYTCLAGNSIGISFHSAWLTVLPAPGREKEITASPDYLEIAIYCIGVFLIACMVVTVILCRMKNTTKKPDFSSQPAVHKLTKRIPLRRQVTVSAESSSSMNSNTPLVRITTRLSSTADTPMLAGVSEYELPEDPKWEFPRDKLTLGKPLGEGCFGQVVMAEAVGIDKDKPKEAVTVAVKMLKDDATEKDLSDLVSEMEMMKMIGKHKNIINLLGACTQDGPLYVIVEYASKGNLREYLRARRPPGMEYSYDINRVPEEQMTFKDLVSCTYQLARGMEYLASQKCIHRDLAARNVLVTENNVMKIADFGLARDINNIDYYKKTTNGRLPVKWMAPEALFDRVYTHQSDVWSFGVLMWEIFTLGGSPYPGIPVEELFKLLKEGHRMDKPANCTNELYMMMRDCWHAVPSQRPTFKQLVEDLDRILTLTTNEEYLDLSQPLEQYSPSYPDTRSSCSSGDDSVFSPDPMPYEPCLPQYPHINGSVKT
T4 sequence (P22455 22-802): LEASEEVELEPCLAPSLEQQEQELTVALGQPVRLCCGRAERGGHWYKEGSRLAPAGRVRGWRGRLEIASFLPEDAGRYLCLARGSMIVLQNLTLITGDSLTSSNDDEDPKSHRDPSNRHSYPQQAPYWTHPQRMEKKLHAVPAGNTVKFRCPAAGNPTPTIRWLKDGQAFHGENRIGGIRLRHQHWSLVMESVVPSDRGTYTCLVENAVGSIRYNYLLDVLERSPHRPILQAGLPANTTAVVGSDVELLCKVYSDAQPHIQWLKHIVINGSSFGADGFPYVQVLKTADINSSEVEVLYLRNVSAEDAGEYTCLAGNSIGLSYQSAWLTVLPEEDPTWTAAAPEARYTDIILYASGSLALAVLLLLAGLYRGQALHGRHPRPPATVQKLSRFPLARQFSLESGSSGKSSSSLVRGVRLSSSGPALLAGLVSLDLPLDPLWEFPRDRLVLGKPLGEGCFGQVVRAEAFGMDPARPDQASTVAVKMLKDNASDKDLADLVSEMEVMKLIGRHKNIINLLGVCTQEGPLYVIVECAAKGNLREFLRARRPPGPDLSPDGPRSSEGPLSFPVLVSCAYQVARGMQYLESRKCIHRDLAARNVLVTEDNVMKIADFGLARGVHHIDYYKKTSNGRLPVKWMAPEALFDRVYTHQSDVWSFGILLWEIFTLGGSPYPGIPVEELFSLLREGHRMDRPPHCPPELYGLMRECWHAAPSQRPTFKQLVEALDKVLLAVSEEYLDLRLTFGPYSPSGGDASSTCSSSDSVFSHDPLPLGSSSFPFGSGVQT

Compound | GI50 (FGFR1-BCR Ba/F3 cells) | IC50 [1] | Kd (FGFR3 (V555M)) | Kd (FGFR2) | Kd (FGFR4) | GI50 [2] | Kd (FGFR1) | Kd (FGFR3) | IC50 [3]
Cc1cnc(Nc2ccc(N=S(C)(C)=O)cc2)nc1-c1c[nH]c2ccccc12 [Example 11, N-[4-[[dimethyl(oxo)-λ^6-sulfanylidene]amino]phenyl]-4-(1H-indol-3-yl)-5-methyl-pyrimidin-2-amine] | 115 nM | 153 nM | 57 nM | 3300 nM | 57 nM | 15 nM | 350 nM | 370 nM | 108 nM
COc1cc(Nc2ncc(C)c(-c3c[nH]c4ccccc34)n2)ccc1N=S(C)(C)=O [Example 26, N-[4-[[dimethyl(oxo)-λ^6-sulfanylidene]amino]-3-methoxy-phenyl]-4-(1H-indol-3-yl)-5-methyl-pyrimidin-2-amine] | 75 nM | 111 nM | 1 nM | 2 nM | 91 nM | 15 nM | 42 nM | 10 nM | 173 nM
Cc1cnc(Nc2ccc(N=S(C)(C)=O)c(OCCN3CCOCC3)c2)nc1-c1c[nH]c2ccccc12 [Example 27, N-[4-[[dimethyl(oxo)-λ^6-sulfanylidene]amino]-3-(2-morpholinoethoxy)phenyl]-4-(1H-indol-3-yl)-5-methyl-pyrimidin-2-amine] | 11 nM | 43 nM | – | 1 nM | 110 nM | – | 2 nM | 2 nM | 16 nM
COc1cc(Nc2ncc(C)c(-c3c[nH]c4c(C)cccc34)n2)ccc1N=S(C)(C)=O [Example 31, N-[4-[[dimethyl(oxo)-λ^6-sulfanylidene]amino]-3-methoxy-phenyl]-5-methyl-4-(7-methyl-1H-indol-3-yl)pyrimidin-2-amine] | 2 nM | 23 nM | 0.5 nM | 3 nM | 62 nM | 40 nM | 1 nM | 5 nM | 5 nM
Cc1[nH]c2ccccc2c1-c1nc(Nc2ccc(S(C)(=N)=O)cc2)ncc1Cl (stereo not shown) [Example 56, 5-Chloro-4-(2-methyl-1H-indol-3-yl)-N-[4-(methylsulfonimidoyl)phenyl]-pyrimidin-2-amine] | – | 377 nM | 3 nM | 34 nM | 740 nM | 273 nM | 64 nM | 49 nM | 857 nM
Cc1cnc(Nc2ccc(S(C)(=N)=O)cc2)nc1-c1c(C)[nH]c2ccccc12 (stereo not shown) [Example 57, 5-Methyl-4-(2-methyl-1H-indol-3-yl)-N-[4-(methylsulfonimidoyl)phenyl]-pyrimidin-2-amine] | – | 610 nM | 6 nM | 43 nM | 680 nM | 431 nM | 50 nM | 53 nM | 803 nM
C=CC(=O)Nc1cc2ccn(-c3nc(Nc4ccc(N=S(C)(C)=O)cc4)ncc3Cl)c2cc1C [Example 85, N-[1-[5-chloro-2-[4-[[dimethyl(oxo)-λ^6-sulfanylidene]amino]anilino]-pyrimidin-4-yl]-6-methyl-indol-5-yl]prop-2-enamide] | 171 nM | – | 16 nM | 89 nM | 2300 nM | 459 nM | 330 nM | 180 nM | –
C=CC(=O)Nc1ccc2c(-c3nc(Nc4ccc(N=S(C)(C)=O)c(F)c4)ncc3Cl)cn(C)c2c1 [Example 93, N-[3-[5-Chloro-2-[4-[[dimethyl(oxo)-λ^6-sulfanylidene]amino]-3-fluoro-anilino]pyrimidin-4-yl]-1-methyl-indol-6-yl]prop-2-enamide] | 1 nM | – | – | – | – | 14 nM | – | – | –
C=CC(=O)Nc1ccc2c(-c3nc(Nc4ccc(N=S(C)(C)=O)nc4)ncc3Cl)cn(C)c2c1 [Example 94, N-[3-[5-Chloro-2-[[6-[[dimethyl(oxo)-λ^6-sulfanylidene]amino]-3-pyridyl]amino]pyrimidin-4-yl]-1-methyl-indol-6-yl]prop-2-enamide] | 4 nM | – | – | – | – | 23 nM | – | – | –
